The values that follow are results of earlier work, collected in patent US6537525B1, “Medicated chewing-gum” (priority 1997, dated 2003).

Series [1] has as its system esophageal lesions associated with heartburn. The note with it: versus placebo or ranitidine.
The conditions of series [2]: antacid; versus magnesium trisilicate or magnesium carbonate.

For `NC(N)=Nc1nc(CSCCC(N)=NS(N)(=O)=O)cs1` [Famotidine], the “effectiveness in the healing of esophageal lesions associated with heartburn” value in series [1] is listed as “significantly more effective than placebo or ranitidine”. In the case of `[O]=[Mg]` [Magnesium oxide, magnesium oxide], the “potency relative to magnesium trisilicate or magnesium carbonate” value in series [2] was 8 to 10 times.
